Measurements published in US11072617B2, “Bicyclic sulfones and sulfoxides and methods of use thereof” (Genentech, Inc., priority 2017, dated 2021).

What follows are compounds tested against human RIP1 kinase domain (2-375) (Homo sapiens (Human), UniProt Q13546) (assay: RIP1 kinase inhibition biochemical assay (Transcreener ADP, fluorescence polarization)). Conditions: Ki app from tight-binding Morrison equation; 50 nM enzyme, 50 uM ATP, 2 hours incubation.
Experimental: RIP1 Kinase Inhibition Assays (Biochemical Assay)
The compounds of the present invention were tested for their capacity to inhibit RIP1K activity as described below.
The ability of the receptor interacting protein kinase (RIPK1) to catalyze the hydrolysis of adenosine-5′-triphosphate (ATP) is monitored using the Transcreener ADP (adenosine-5′-diphosphate) assay (BellBrook Labs). Purified human RIP1 kinase domain (2-375) (50 nM) derived from a baculovirus-infected insect cell expression system is incubated with test compounds for 2 hours in 50 mM Hepes buffer (pH 7.5) containing 30 mM MgCl2, 1 mM dithiothreitol, 50 uM ATP, 0.002% Brij-35, and 0.5% dimethyl sulfoxide (DMSO). Reactions are quenched by the addition of 1× Bell Brooks Stop buffer B (20 mM Hepes (ph7.5), 40 mM ethylenediaminetetraacetic acid and 0.02% Brij-35) containing an additional 12 mM EDTA and 55 ug/mL ADP2 antibody and 4 nM ADP-AlexaFluor® 633 tracer. The tracer bound to the antibody is displaced by the ADP generated during the RIP1K reaction, which causes a decrease in fluorescence polarization that is measured by laser excitation at 633 nm with a FP microplate reader M1000. Fractional activity was plotted against test article concentration. Using Genedata Screener software (Genedata; Basel, Switzerland), the data were fit to the tight-binding apparent inhibition constant (Ki^app) Morrison equation [Williams, J. W. and Morrison, J. F. (1979) The kinetics of reversible tight-binding inhibition. Methods Enzymol 63: 437-67]. The following equation was used to calculate fractional activity and Ki^app:
[formula] where [E]T and [I]T are the total concentrations of active enzyme and test article, respectively.
Exemplary compounds of the present invention are provided in Table 1 along with their physiochemical characterization and in vitro RIP1 kinase inhibitory activity data. “Method” in the first column of each table refers to the synthetic method(s) used to prepare each compound as shown in the Examples above. In certain examples, chiral column retention times (min) are provided for certain stereoisomers. Unless otherwise specified, the stereochemistry shown in each structure represents relative configuration of a single stereoisomer, and absolute configuration (i.e., “R” and/or “S”) is arbitrarily assigned. In some embodiments, where the Method is described to include the separation of stereoisomers, a single stereoisomer of a compound of Table 1 is provided.

human RIP1 kinase domain (2-375), sequence (Q13546 2-375): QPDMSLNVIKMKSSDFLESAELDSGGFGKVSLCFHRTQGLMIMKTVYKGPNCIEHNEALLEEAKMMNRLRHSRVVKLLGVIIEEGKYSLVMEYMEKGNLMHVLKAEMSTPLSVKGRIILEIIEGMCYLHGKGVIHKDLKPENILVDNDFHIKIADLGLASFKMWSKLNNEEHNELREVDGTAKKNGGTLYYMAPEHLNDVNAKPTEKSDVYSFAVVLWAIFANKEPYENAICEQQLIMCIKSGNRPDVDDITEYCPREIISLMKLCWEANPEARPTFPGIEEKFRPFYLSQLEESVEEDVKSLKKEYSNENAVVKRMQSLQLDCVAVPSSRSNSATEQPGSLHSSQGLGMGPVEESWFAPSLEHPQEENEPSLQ

Compound | Ki
O=S(=O)(c1nc2n(n1)[C@H](c1cc(F)cc(Cl)c1)C[C@@H]2F)C1CC1F (stereo in doubt) [Example 199, (5S,7S)-5-(3-chloro-5-fluoro-phenyl)-7-fluoro-2-[(1S,2S)-2-fluorocyclopropyl]sulfonyl-6,7-dihydro-5H-pyrrolo[1,2-b][1,2,4]triazole] | 0.008 µM
O=S(=O)(c1nc2n(n1)[C@H](c1cccc(F)c1F)C[C@@H]2F)C(F)(F)F (single isomer, unassigned) [Example 136] | < 0.005 µM
[O-][S@@+](CF)c1nc2n(n1)[C@H](c1cccc(F)c1F)C[C@@H]2F (single isomer, unassigned) [Example 76] | < 0.005 µM
O=S(=O)(c1nc2n(n1)[C@H](c1cccc(F)c1Cl)C[C@@H]2F)C1CC1 (single isomer, unassigned) [Example 45] | < 0.005 µM
O=S(=O)(c1nc2n(n1)[C@H](c1ccccc1Cl)CC2)C(F)F [Example 16, (5S)-5-(2-chlorophenyl)-2-(difluoromethylsulfonyl)-6,7-dihydro-5H-pyrrolo[1,2-b][1,2,4]triazole] | 0.056 µM
[O-][S@+](CF)c1nc2n(n1)[C@H](c1cc(F)cc(F)c1)C[C@@H]2F (single isomer, unassigned) [Example 85] | 0.18 µM
[O-][S@+](c1nc2n(n1)[C@H](c1ccccc1)C[C@@H]2F)C(F)F [Example 22, (5S,7S)-2-[(R)-difluoromethylsulfinyl]-7-fluoro-5-phenyl-6,7-dihydro-5H-pyrrolo[1,2-b][1,2,4]triazole] | 0.003 µM
CC(C)(C)[S@@+]([O-])c1nc2n(n1)[C@H](c1ccccc1)C[C@@H]2F (single isomer, unassigned) [Example 191] | 0.005 µM
CC1(S(=O)(=O)c2nc3n(n2)[C@H](c2ccccc2)C[C@@H]3F)CC1(F)F (stereo partly drawn) [Example 167, (5S,7S)-2-((2,2-difluoro-1-methylcyclopropyl)sulfonyl)-7-fluoro-5-phenyl-6,7-dihydro-5H-pyrrolo[1,2-b][1,2,4]triazole] | 0.012 µM
O=S(=O)(c1nc2n(n1)[C@H](c1ccccc1F)C[C@@H]2F)C1CC1F (stereo in doubt) [Example 205, (5S,7S)-7-fluoro-5-(2-fluorophenyl)-2-[(1S,2S)-2-fluorocyclopropyl]sulfonyl-6,7-dihydro-5H-pyrrolo[1,2-b][1,2,4]triazole] | 0.02 µM
O=S(=O)(c1nc2n(n1)[C@H](c1ccccc1F)C[C@@H]2F)[C@H]1CC1(F)F (single isomer, unassigned) [Example 119] | 0.007 µM
O=S(=O)(c1nc2n(n1)[C@H](c1ccccc1)C[C@@H]2F)[C@H]1C[C@H](OC(F)F)C1 [Example 213, (5S,7S)-2-trans-[3-(difluoromethoxy)cyclobutyl]sulfonyl-7-fluoro-5-phenyl-6,7-dihydro-5H-pyrrolo[1,2-b][1,2,4]triazole] | 0.006 µM
O=S(=O)(c1nc2n(n1)[C@H](c1c(F)ccc(F)c1F)C[C@@H]2F)C(F)F (single isomer, unassigned) [Example 59] | 0.007 µM
O=S(=O)(c1nc2n(n1)[C@H](c1ccccc1)C[C@@H]2F)C1(C(F)F)CC1 (single isomer, unassigned) [Example 155] | 0.0048 µM
O=S(=O)(c1nc2n(n1)[C@H](c1ccccc1)C[C@@H]2F)C(F)F (single isomer, unassigned) [Example 23] | 0.005 µM
[O-][S+](Cc1ccccn1)c1nc2n(n1)[C@H](c1ccccc1)C[C@@H]2F (stereo partly drawn) [Example 147, (5S,7S)-7-fluoro-5-phenyl-2-((pyridin-2-ylmethyl)sulfinyl)-6,7-dihydro-5H-pyrrolo[1,2-b][1,2,4]triazole] | 0.14 µM
O=S(=O)(c1nc2n(n1)[C@H](c1cc(Cl)ccc1F)C[C@@H]2F)C1CC1 (single isomer, unassigned) [Example 47] | 0.067 µM
O=S(=O)(c1cc2n(n1)[C@H](c1ccccc1)C[C@@H]2F)C1CC1 [Example 31, (4S,6S)-2-cyclopropylsulfonyl-4-fluoro-6-phenyl-5,6-dihydro-4H-pyrrolo[1,2-b]pyrazole] | 0.01 µM

Results, then the compound that gave them:

Ki | Compound
0.007 µM | O=S(=O)(c1nc2n(n1)[C@H](c1cccc(Cl)c1F)C[C@@H]2F)[C@@H]1C[C@H]1F [Example 208, (5S,7S)-5-(3-chloro-2-fluoro-phenyl)-7-fluoro-2-[(1R,2R)-2-fluorocyclopropyl]sulfonyl-6,7-dihydro-5H-pyrrolo[1,2-b][1,2,4]triazole]
0.008 µM | [O-][S@+](c1nc2n(n1)[C@H](c1ccccc1Cl)CC2)C(F)F [Example 18, (5S)-5-(2-chlorophenyl)-2-[(R)-difluoromethylsulfinyl]-6,7-dihydro-5H-pyrrolo[1,2-b][1,2,4]triazole]
0.028 µM | [O-][S+](CC(F)(F)F)c1nc2n(n1)[C@H](c1ccccc1)C[C@@H]2F (stereo partly drawn) [Example 113, (5S,7S)-7-fluoro-5-phenyl-2-(2,2,2-trifluoroethylsulfinyl)-6,7-dihydro-5H-pyrrolo[1,2-b][1,2,4]triazole]
0.014 µM | CC(C)S(=O)(=O)c1nc2n(n1)[C@H](c1ccccc1)C[C@@H]2F (single isomer, unassigned) [Example 110]
0.006 µM | O=S(=O)(c1nc2n(n1)[C@H](c1cccc(F)c1F)C[C@@H]2F)C(F)F (single isomer, unassigned) [Example 68]
0.018 µM | N#CC[S+]([O-])c1nc2n(n1)[C@H](c1ccccc1)C[C@@H]2F (stereo partly drawn) [Example 102, 2-[[(5S,7S)-7-fluoro-5-phenyl-6,7-dihydro-5H-pyrrolo[1,2-b][1,2,4]triazol-2-yl]sulfinyl]acetonitrile]
0.069 µM | O=S(=O)(c1nc2n(n1)[C@H](c1cc(Cl)ccc1F)C[C@@H]2F)C(F)F [Example 66, (5S,7S)-5-(5-chloro-2-fluorophenyl)-2-((difluoromethyl)sulfonyl)-7-fluoro-6,7-dihydro-5H-pyrrolo[1,2-b][1,2,4]triazole]
0.004 µM | O=S(=O)(c1nc2n(n1)[C@H](c1ccccc1)C[C@@H]2F)C1CC1(F)F (mixture of isomers) [Example 118, (5S,7S)-2-((2,2-difluorocyclopropyl)sulfonyl)-7-fluoro-5-phenyl-6,7-dihydro-5H-pyrrolo[1,2-b][1,2,4]triazole]
0.008 µM | N#CCS(=O)(=O)c1cc2n(n1)[C@H](c1ccccc1)C[C@@H]2F (single isomer, unassigned) [Example 90]
0.01 µM | O=S(=O)(c1nc2n(n1)[C@H](c1ccc(F)cc1)C[C@@H]2F)C1CC1 (single isomer, unassigned) [Example 34]
0.3 µM | O=S(=O)(c1nc2n(n1)[C@H](c1ccccc1)C[C@@H]2F)[C@H]1C[C@@H](O)C1 (single isomer, unassigned) [Example 225]
0.46 µM | O=S(=O)(c1nc2n(n1)[C@H](c1cccc(F)c1)C[C@@H]2F)[C@H]1C[C@@H](O)C1 (single isomer, unassigned) [Example 195]
0.35 µM | N#Cc1cccc([C@@H]2C[C@H](F)c3nc(S(=O)(=O)C(F)F)nn32)c1 (single isomer, unassigned) [Example 192]
< 0.005 µM | [O-][S@@+](CF)c1nc2n(n1)[C@H](c1c(F)cccc1F)C[C@@H]2F (single isomer, unassigned) [Example 80]
0.031 µM | O=S(=O)(c1nc2n(n1)[C@H](c1ccc(F)c(F)c1)C[C@@H]2F)[C@H]1C[C@@H]1F (single isomer, unassigned) [Example 143]
